In US20040082623A1, “Fmoc-l-leucine and derivatives thereof as ppar-gamma agonists” (priority 2003, published 2004):

Columns and labels:
PPARγ2 [1] = target: T1, PPARγ2 (Homo sapiens, UniProt P37231); assay: Transient transfection, PPARγ2 reporter (luciferase/β-galactosidase) in Hep G2 cells; format: cell-based; set-up: a construct containing the entire cDNA of the human PPARγ2 (hPPARγ2); expressed in transfected cells; host or cells: Hep G2; details: HepG2 cells, pSG5-hPPARγ2, 24 h, F-L-leu at 10^−5 M
T1 sequence (P37231 1-505): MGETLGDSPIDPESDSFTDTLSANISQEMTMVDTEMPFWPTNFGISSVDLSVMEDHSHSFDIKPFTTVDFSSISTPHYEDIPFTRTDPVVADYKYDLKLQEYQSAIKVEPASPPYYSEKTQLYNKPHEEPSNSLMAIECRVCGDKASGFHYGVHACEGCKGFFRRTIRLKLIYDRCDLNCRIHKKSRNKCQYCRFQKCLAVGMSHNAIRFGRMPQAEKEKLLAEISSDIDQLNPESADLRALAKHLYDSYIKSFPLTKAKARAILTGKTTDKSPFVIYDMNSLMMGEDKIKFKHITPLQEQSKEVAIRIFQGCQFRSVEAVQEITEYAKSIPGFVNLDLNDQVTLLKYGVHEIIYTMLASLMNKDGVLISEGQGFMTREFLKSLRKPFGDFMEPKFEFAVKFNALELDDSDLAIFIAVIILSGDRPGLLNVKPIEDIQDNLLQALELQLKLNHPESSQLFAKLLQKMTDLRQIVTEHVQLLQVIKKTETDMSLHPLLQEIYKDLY
Protocol: Hep G2 cells were co-transfected with an expression vector for PPARγ2 (0.1 μg/well), pGL3-(Jwt)3TKLuc reporter construct (0.5 μg/well), and pCMV-βGal (0.5 μg/well), as a control of transfection efficiency (0.5 μg/well). The were then grown during 24 h in the presence or absence of indicated compound Activation is expressed as relative luciferase activity/β-galactosidase activity. Each point was performed in triplicate. This figure is representative of three independent experiments.
(§1) RK13 cells (A and D), CV1 cells (B) or Hep G2 cells (C) were co-transfected with an expression vector for PPARγ2 (0.1 μg/well), pGL3-(Jwt)3TKLuc reported construct (0.5 μg/well), and pCMV-βGal (0.5 μg/well), as a control of transfection efficiency (0.5 μg/well). They were then grown during 24 h in the presence or absence of indicated compound. Activation is expressed as relative luciferase activity/β ? galactosidase activity. Each point was performed in triplicate, and each figure i ? representative of four independent experiments.
(§2) The CV1, RK-13, and Hep G2 cell lines were obtained from ATCC (Rockville, Md.). Cells were maintained in Dulbecco's modified Eagle's minimal essential medium (DMEM) supplemented with 10% fetal calf serum (FCS), L-glutamine, and antibiotics. Transfections with chloramphenicol acetyltransferase (CAT) or luciferase (luc.) reporter constructs were carried out exactly as described previously (Schoonjans et al., 1996). The pGL3-(Jwt)3TKLuc and the pGL3-(Jwt)3TKCAT reporter constructs contain both three tandem repeats of the J site of the apolipoprotein A-II promoter cloned upstream of the herpes simplex virus thymidine kinase (TK) promoter and the luciferase or the CAT reporter genes respectively (Vu-Dac et al., 1995). The following expression vectors were used; pSG5-hPPARγ2, a construct containing the entire cDNA of the human PPARγ2 (hPPARγ2) (Fajas et al., 1997); pSG5-mPPARα (Isseman et al., 1993); and pCMV-βGal, as a control of transfection efficiency.

PPARγ2 [2] = target: T1, PPARγ2; assay: Transient transfection, PPARγ2 reporter in RK13 cells; format: cell-based; set-up: a construct containing the entire cDNA of the human PPARγ2 (hPPARγ2); expressed in transfected cells; host or cells: Hep G2, RK13 or CV1 cells; details: RK13 cells, 10^−5 M added
Protocol: as §1, §2

db/db mice = details: db/db

Row | PPARγ activation (relative luciferase activity/β-galactosidase activity) (PPARγ2 [1]) | PPARγ activation (relative luciferase activity/β-galactosidase activity) (PPARγ2 [1]; listed as FMOC substituted L-tyrosine derivative) | modification of PPARγ activity when added to a saturating concentration of rosiglitazone (PPARγ2 [2]) | SMILES | maximal glycemia in IPGTT (db/db mice; 10 mg/kg/day i.p., 7 days, DMSO control 500) [mg/dL] | body weight vs control mice (db/db mice; 10 mg/kg/day, 8 days) | fasting serum insulin levels (mean) (db/db mice; 7 days treatment, DMSO group 180) [μUI/mL]
1 | devoid of | did not activate PPARγ | No significant modification | O=C(N[C@@H](Cc1ccc(O)cc1)C(=O)O)OCC1c2ccccc2-c2ccccc21 [FMOC-L-tyrosine, reference compound] |  |  | 
2 | no significant PPARγ activation |  | No significant modification | CC(C)C[C@@H](NC(=O)OCC1c2ccccc2-c2ccccc21)C(=O)O [FMOC-D-leucine, reference compound] |  |  | 
3 |  |  |  | CN(CCOc1ccc(CC2SC(=O)NC2=O)cc1)c1ccccn1 (centres unmarked) [rosiglitazone, reference compound] | 350 | tendency to increase body weight | 70
